Laboratory results reported in US12233047B2, “Pharmaceutical combination and use thereof” (ASCENTAGE PHARMA (SUZHOU) CO., LTD., priority 2019, dated 2025).

Tests used:
[1] = test system: Human AML cell line MV-4-11 (FLT3-ITD positive and wild type TP53 gene); experiment: Human MV-4-11 AML subcutaneous mouse xenograft model; assay type: in vivo; conditions: MV-4-11 subcutaneous xenograft, Compound 23 10 mg/kg, Compound C 30 mg/kg
Procedure: The formulation of Compound C was prepared as homogenous suspension in 0.2% HPMC using a mortar. The drug suspension was prepared every three days or once a week and placed at 4° C. when not in use. Before use, the drug suspension was placed at room temperature and shaken to mix well. The formulation of Compound C was administered to mice via p.o. in a volume of 10 mL/kg. […] The drug suspension was prepared once every other day and placed at 4° C. when not in use. Before use, the drug suspension was placed at room temperature and shaken well. […] MV-4-11 cells (Human AML cell line MV-4-11 (FLT3-ITD positive and wild type TP53 gene)) were maintained in IMDM (Cat. C12440500BT, GIBCO), with 10% fetal bovine serum (Cat. 10099-141, GIBCO), 1% L-glutamine, 100 U/mL penicillin G and 100 μg/mL streptomycin (Cat. GNM15140, Hangzhou Geno Biomedical Technology Co., Ltd). Cells were incubated at 37° C. in a humidified incubator with 5% CO2. Six to eight weeks old, female, NOD SCID and BALB/c nude mice were used. Animals were obtained from Vital River Laboratories (VRL, Beijing, China, license number SCXK(J) 2012-0001 and SCXK(J) 2016-0006). The body weights were 17-24 g. Randomization was conducted when the size of xenograft tumors reached 100-150 mm^3. Based on the size of the tumor and body weight, animals were randomly assigned into experimental groups. […] MV-4-11 subcutaneous xenograft models were established by subcutaneously injecting tumor cells (1×10^7 cells (50% Matrigel)/mouse) into the right flank of the mouse under the sterile condition. When the tumors reached an appropriate size (100-200 mm^3), mice were randomized into 6 mice per group and treatment was initiated (day 1) according to Table 4. [table] The tumors sizes and animal body weights were measured twice a week. Tumor volumes were estimated from measurements of two diameters of the individual tumors as follows: Tumor Volume (mm^3)=(a×b^2)/2 Relative tumor volume (RTV) were calculated according to the follows: RTV=Vt/V1 where V1 and Vt were respectively the average tumor volume on the first day of treatment (day 1) and the average tumor volume on a certain time point (day T). Standard NCI procedures were used to calculate tumor parameters (Teicher, B. A. (2011). “Tumor Models in Cancer Research.” Second Edition, Human Press). Percent tumor growth inhibition (% T/C) was calculated as the mean RTV of treated tumors (T) divided by the mean RTV of control tumors (C)×100%. […] A body weight loss (mean of group) of greater than 20%, or greater than 20% of drug deaths are considered to indicate an excessively toxic dosage. The synergistic analysis was performed using the following formula described in Clarke R. Issues in experimental design and endpoint analysis in the study of experimental cytotoxic agents in vivo in breast cancer and other models[J]. Breast Cancer Research & Treatment, 1997, 46(2-3):255-278, which is incorporated by reference in its entirety: expected value=(A/C)×(B/C); actual value=(AB)/C; A: RTV of drug A; B: RTV of drug B; C=RTV of the vehicle control group; AB=RTV of the combination group. Ratio=expected/actual value. […] A ratio=1 indicates the two drugs have additive effects. A ratio <1 indicates the two drugs may have antagonist effects. According to the earlier publication (Gao, H., et al. (2015). “High-throughput screening using patient-derived tumor xenografts to predict clinical trial drug response” Nat Med 21: 1318), additional measurements of response included stable disease (SD), partial tumor regression (PR), and complete regression (CR) were determined by comparing tumor volume change at day t to its baseline: tumor volume change (%)=(Vt−V1)/V1. […] For each time t, the average of tumor volume change from t=1 to t was also calculated. […]

[2] = test system: Human AML cell line MOLM-13 (FLT3-ITD positive and wild type TP53 gene); experiment: Human MOLM-13 AML systemic mouse xenograft model, survival; assay type: in vivo; conditions: MOLM-13 systemic model, Compound 23 10 mg/kg, Compound C 20 mg/kg, p.o. q2d × 21 d
Procedure: The formulation of Compound C was prepared as homogenous suspension in 0.2% HPMC using a mortar. The drug suspension was prepared every three days or once a week and placed at 4° C. when not in use. Before use, the drug suspension was placed at room temperature and shaken to mix well. The formulation of Compound C was administered to mice via p.o. in a volume of 10 mL/kg.
The formulation of Compound 23 was prepared in 0.2% HPMC in a mortar to generate homogenous suspension. The drug suspension was prepared once every other day and placed at 4° C. when not in use. Before use, the drug suspension was placed at room temperature and shaken well. The formulation of Compound 23 was administered to mice via p.o. in a volume of 10 mL/kg.
MOLM-13 cell lines (Human AML cell line MOLM-13 (FLT3-ITD positive and wild type TP53 gene)) were maintained in RPMI-1640 (Cat. C11875500BT, GIBCO) with 10% fetal bovine serum (Cat. 10099-141, GIBCO), 1% L-glutamine, 100 U/mL penicillin G and 100 μg/mL streptomycin (Cat. GNM15140, Hangzhou Geno Biomedical Technology Co., Ltd). Cells were incubated at 37° C. in a humidified incubator with 5% CO2.
Six to eight weeks old, female, NOD SCID and BALB/c nude mice were used. Animals were obtained from Vital River Laboratories (VRL, Beijing, China, license number SCXK(J) 2012-0001 and SCXK(J) 2016-0006). The body weights were 17-24 g.
MOLM-13 systemic tumor model were established by injecting tumor cells into the tail vein (10×10^6 cells/mouse) under the sterile condition. To establish the MOLM-13 systemic model, all animals were intraperitoneally injected (i.p.) with cyclophosphamide (150 mg/kg) for two consecutive days before the inoculation of MOLM-13 cells. On the third day after cell inoculation, animals were randomized into 10 mice per group and treatment was initiated (day 1) according to Table 2.
The animals were euthanized when the experimental animals had symptoms such as weight loss and weight loss greater than 20%, limb paralysis, tumor metastasis to the eye causing ocular protrusion, tumor metastasis to the abdominal cavity causing abdominal enlargement. These severe health issues were considered as the same as animal death caused by tumor growth and the affected animals were sacrificed immediately.
The date of the last mouse died (the last measurement) was used for analysis of median overall survival and the generation of Kaplan-Meier plots. Survival curves of different treatment groups were compared using log-rank test with Bonferroni's multiple test. All data were analyzed in SPSS version 18.0 (IBM, Armonk, NY, U.S.A.). Prism version 6 (GraphPad Software Inc., San Diego, CA, U.S.A.) was used for graphic presentation.

Cc1ccc(C(=O)Nc2ccc(CN3CCN(C)CC3)c(C(F)(F)F)c2)cc1C#Cc1cnc2[nH]ncc2c1 [Compound 23, 3-(2-(1H-pyrazolo[3,4-b]pyridin-5-yl)ethynyl)-4-methyl-N-(4-((4-methylpiperazin-1-yl)methyl)-3-(trifluoromethyl)phenyl)benzamide]
Tumor weight on D 22 (Mean ± SEM) ([1]; day 22, p.o. q2d × 22 d, vehicle 2.29 ± 0.29, in g (unit assumed)): 0.67 ± 0.11
T/C(%)@D 22 ([1]; mean RTV treated/control, day 22, p.o. q2d): 28.6%
RTV@D 22 ([1]; relative tumor volume day 22, p.o. q2d, vehicle 18.2 ± 3.3): 5.2 ± 0.9
Median survival time of mice ([2]; vehicle 19 days): 29 days
Prolonged survival time of mice ([2]; versus vehicle): 10 days
